Consider 19 compounds from patent publication US20230219956A1 (BETTA PHARMACEUTICALS CO.,LTD, priority 2019, published 2023).

What is called IC50 is the midpoint of a concentration-inhibition curve. Low readings indicate greater potency, high ones weaker potency.

In one assay the test system is MIA-PACA-2 cells. In words: Cell proliferation assay, MIA-PACA-2 cells (Cell-titer Glo). It counts as cell-based. Conditions: Homo sapiens, 96 h incubation. How it is done:
(§1) Pave the MIA-PACA-2 cells into a 96-well ultra-low adsorption plate at 600 cells, 160 μL/well. After incubating overnight, compound solutions of gradient concentration was prepared, and added 40 μL of DMSO solution of the test compound of each concentration to the cells of each well. The final concentration of the compound is 10000, 2000, 400, 80, 16, 3.2, 0.64, 0.12, 0.025, 0 nM (the final concentration of DMSO is 0.25%). Incubated for 96 h at 37° C. and 5% CO2. 50 μL of Cell-titer Glo working solution was added to each well, shaked and mixed, and incubated at room temperature for 10 minutes. The multi-functional microplate reader read the luminescence value, and converted the luminescence value reading into inhibition percentage.
(§2) Inhibition percentage=(maximum value−reading)/(maximum value−minimum value)*100.
(§3) The “maximum value” was the DMSO control, the “minimum value” indicates the cell-free control group.
(§4) Graphpad Prism software was used to perform curve fitting and obtain IC50 value.
Refer to Table 3 for the IC50 data of some compounds in the examples inhibiting MIA-PACA-2 cells.

The next assay concerns H358 cells. The experiment in a line: Cell proliferation assay, H358 cells (Cell-titer Glo). The class given is cell-based. Conditions: Homo sapiens, NCI-H358, 96 h incubation. Here is the method: as §1, with “the H358” for “the MIA-PACA-2”, “cells on” for “cells into”, “plate with 2000 cells and 190” for “plate at 600 cells, 160”, “added 10” for “added 40”, “10000, 3333.3, 1111.1, 370.4, 123.5, 41.2, 13.7, 4.6, 1.5,” for “10000, 2000, 400, 80, 16, 3.2, 0.64, 0.12, 0.025,”
as §2, §3, §4
Refer to table 3 for the IC50 data of some compounds in the Examples for inhibiting H358 cells.

For the compound `C=CC(=O)N1CC2(CCN(c3nc(C4CCN(CC(C)(C)O)CC4)nc4c(OCC(F)(F)F)c(-c5c(C)ccc6[nH]ncc56)c(C=C)cc34)CC2)C1` [Example 60], the IC50 amounted to 4 nM with MIA-PACA-2 cells and 4.1 nM in the assay with H358 cells.
The matching figures for `C=CC(=O)N1CC2(CCN(c3nc(C4CCN(CCO)CC4)nc4c(OCC(F)(F)F)c(-c5c(C)ccc6[nH]ncc56)c(C=C)cc34)CC2)C1` [Example 61, 1-(7-(2-(1-(2-(hydroxyethyl))piperidin-4-yl)-7-(5-methyl-1H-indazole-4-yl)-8-(2,2,2-trifluoroethoxy)-6-vinylquinazolin-4-yl)-2,7-diazarospiro [3.5]nonan-2-yl) propyl-2-en-1-one]: 8 nM and 4.9 nM.
As to `C=CC(=O)N1CC2(CCN(c3nc(C4CCN(C(=O)OC)CC4)nc4c(OCC(F)(F)F)c(-c5c(C)ccc6[nH]ncc56)c(C=C)cc34)CC2)C1` [Example 62, Methyl 4-(4-(2-acryloyl-2,7-diazspiro [3.5]nonan-7-yl)-7-(5-methyl-1H-indazole-4-yl)-8-(2,2,2-trifluoroethoxy)-6-vinylquinazolin-2-yl) piperidine-1-carboxylic acid], the half-maximal inhibitory concentration (IC50) worked out at 43.5 nM in the assay on MIA-PACA-2 cells and 29.3 nM in the assay with H358 cells.
In the case of `C=CC(=O)N1CC2(CCN(c3nc(C4CCNCC4)nc4c(OCC(F)(F)F)c(-c5c(C)ccc6[nH]ncc56)c(C=C)cc34)CC2)C1` [Example 63, 1-(7-(7-(5-methyl-1H-indazol-4-yl)-2-(piperidin-4-yl)-8-(2,2,2-trifluoroethoxy)-6-vinylquinazoline-4-yl)-2,7-diazaspiro[3.5]nonan-2-yl)prop-2-en-1-one], the IC50 in the assay with MIA-PACA-2 cells was determined as 406 nM; with H358 cells it was 187 nM.
The matching figures for `C=CC(=O)N1CCC(c2nc(N3CCC4(CC3)CN(C(=O)C=C)C4)c3cc(C=C)c(-c4c(C)ccc5[nH]ncc45)c(OCC(F)(F)F)c3n2)CC1` [Example 64, 1-(4-(4-(2-acryloyl-2,7-diazazospiro [3.5]nonan-7-yl)-7-(5-methyl-1H-indazole-4-yl)-8-(2,2,2-trifluoroethoxy)-6-vinylquinazolin-2-yl)piperidin-1-yl) propyl-2-en-1-one]: 57.1 nM and 16.6 nM.
The matching figures for `C=CC(=O)N1CC2(CCN(c3nc(C4CCN(C5COC5)CC4)nc4c(OCC(F)(F)F)c(-c5c(C)ccc6[nH]ncc56)c(C=C)cc34)CC2)C1` [Example 65, 1-(7-(7-(5-methyl-1H-indazol-4-yl)-2-(1-(oxacyclobutan-3-yl)piperidin-4-yl)-8-(2,2,2-trifluoroethoxy)-6-vinylquinazolin-4-yl)-2,7-diazspiro [3.5]nonan-2-yl) propyl-2-en-1-one]: 8.9 nM and 4.4 nM.
For the compound `C=CC(=O)N1CC2(CCN(c3nc(C4CCN(C5CCN(C)CC5)CC4)nc4c(OCC(F)(F)F)c(-c5c(C)ccc6[nH]ncc56)c(C=C)cc34)CC2)C1` [Example 66, 1-(7-(7-(5-methyl-1H-indazol-4-yl)-2-(1′-methyl-[1,4-bipiperidine]-4-yl)-8-(2,2,2-trifluoroethoxy)-6-vinylquinazolin-4-yl)-2,7-diazspiro [3.5]nonan-2-yl) propyl-2-en-1-one], the values for the 50% inhibitory concentration (IC50) in the assay with MIA-PACA-2 cells and in the assay with H358 cells were 8.5 nM and 11.5 nM, respectively.
Consider `C=CC(=O)N1CC2(CCN(c3nc(C4CCN(C5CCC(C#N)CC5)CC4)nc4c(OCC(F)(F)F)c(-c5c(C)ccc6[nH]ncc56)c(C=C)cc34)CC2)C1` (centres unmarked) [Example 67, 4-(4-(4-(2-acryloyl-2,7-diazazospiro [3.5]nonan-7-yl)-7-(5-methyl-1H-indazole-4-yl)-8-(2,2,2-trifluoroethoxy)-6-vinylquinazolin-2-yl)piperidin-1-yl) cyclohexane-1-methylnitrile], for which the concentration for half-maximal inhibition (IC50) came to 6.9 nM in the assay with MIA-PACA-2 cells and 4.6 nM with H358 cells.
In the same order, the values of `C=CC(=O)N1CC2(CCN(c3nc(C4CCN(C(C)CO)CC4)nc4c(OCC(F)(F)F)c(-c5c(C)ccc6[nH]ncc56)c(C=C)cc34)CC2)C1` (stereo not drawn) [Example 68, l-(7-(2-(l-(1-hydroxypropane-2-yl)piperidin-4-yl)-7-(5-methyl-1H-indazol-4-yl)-8-(2,2,2-trifluoroethoxy)-6-vinylquinazolin-4-yl)-2,7-diazspiro [3.5]nonan-2-yl) propyl-2-en-1-one] are 2.4 nM and 1.6 nM.
`C=CC(=O)N1CC2(CCN(c3nc(C4CCN(C5CCC5)CC4)nc4c(OCC(F)(F)F)c(-c5c(C)ccc6[nH]ncc56)c(C=C)cc34)CC2)C1` [Example 69, 1-(7-(2-(1-cyclobutylpiperidin-4-yl)-7-(5-methyl-1H-indazol-4-yl)-8-(2,2,2-trifluoroethoxy)-6-vinylquinazolin-4-yl)-2,7-diazspiro [3.5]nonan-2-yl) propyl-2-en-1-one]: the half-inhibitory concentration (IC50) came out at 3.7 nM in the assay on MIA-PACA-2 cells and 3.4 nM with H358 cells.
Take `C=CC(=O)N1CC2(CCN(c3nc(C4CCN(CC(=O)C(C)(C)C)CC4)nc4c(OCC(F)(F)F)c(-c5c(C)ccc6[nH]ncc56)c(C=C)cc34)CC2)C1` [Example 70, 1-(4-(4-(2-acryloyl-2,7-diazspiro [3.5]nonan-7-yl)-7-(5-methyl-1H-indazole-4-yl)-8-(2,2,2-trifluoroethoxy)-6-vinylquinazolin-2-yl)piperidin-1-yl)-3,3-dimethylbutane-2-one]: the 50% inhibitory concentration (IC50) in the assay with MIA-PACA-2 cells was 13.7 nM; with H358 cells, 15.5 nM.
For `C=CC(=O)N1CC2(CCN(c3nc(C4CCN(C(C)C)CC4)nc4c(OCC(F)(F)F)c(-c5c(C)ccc6[nH]ncc56)c(C=C)cc34)CC2)C1` [Example 71], the concentration for half-maximal inhibition (IC50) was determined as 8.3 nM in the assay on MIA-PACA-2 cells and 7.4 nM in the assay with H358 cells.
The matching figures for `C=CC(=O)N1CC2(CCN(c3nc(C4CCN(C5CCN(C(C)=O)CC5)CC4)nc4c(OCC(F)(F)F)c(-c5c(C)ccc6[nH]ncc56)c(C=C)cc34)CC2)C1` [Example 72, 1-(7-(2-(1acetyl-[1,4'-bipiperidine]-4-yl)-7-(5-methyl-1H-indazole-4-yl)-8-(2,2,2-trifluoroethoxy)-6-vinylquinazolin-4-yl)-2,7-diazspiro [3.5]nonan-2-yl) propyl-2-en-1-one]: 5.9 nM and 5.2 nM.
In the same order, the values of `C=CC(=O)N1CC2(CCN(c3nc(C4CCN(C5CCC(O)CC5)CC4)nc4c(OCC(F)(F)F)c(-c5c(C)ccc6[nH]ncc56)c(C=C)cc34)CC2)C1` (centres unmarked) [Example 73] are 24.1 nM and 24.3 nM.
The matching figures for `C=CC(=O)N1CC2(CCN(c3nc(C4CCN(C5CCN(C6CC6)CC5)CC4)nc4c(OCC(F)(F)F)c(-c5c(C)ccc6[nH]ncc56)c(C=C)cc34)CC2)C1` [Example 74, 1-(7-(2-(1′-cyclopropyl-[1,4′-bipiperidine]-4-yl)-7-(5-methyl-1H-indazole-4-yl)-8-(2,2,2-trifluoroethoxy)-6-vinylquinazolin-4-yl)-2,7-diazspiro [3.5]nonan-2-yl) propyl-2-en-1-one]: 10.3 nM and 6.7 nM.
In the case of `C=CC(=O)N1CC2(CCN(c3nc(C4CCN(CCF)CC4)nc4c(OCC(F)(F)F)c(-c5c(C)ccc6[nH]ncc56)c(C=C)cc34)CC2)C1` [Example 75, 1-(7-(2-(1-(2-(fluoroethyl))piperidin-4-yl)-7-(5-methyl-1H-indazole-4-yl)-8-(2,2,2-trifluoroethoxy)-6-vinylquinazolin-4-yl)-2,7-diazarospiro [3.5]nonan-2-yl) propyl-2-en-1-one], the figures for the concentration for half-maximal inhibition (IC50) in the assay on MIA-PACA-2 cells and with H358 cells were 3.6 nM and 2.6 nM, respectively.
Consider `C=CC(=O)N1CC2(CCN(c3nc(C4CCN(CC5CC(F)(F)C5)CC4)nc4c(OCC(F)(F)F)c(-c5c(C)ccc6[nH]ncc56)c(C=C)cc34)CC2)C1` [Example 76, 1-(7-(2-(1-((3,3-difluorocyclobutyl)methyl)piperidin-4-yl)-7-(5-methyl-1H-indazole-4-yl)-8-(2,2,2-trifluoroethoxy)-6-vinylquinazolin-4-yl)-2,7-diazspiro [3.5]nonan-2-yl) propyl-2-en-1-one], for which the results for the IC50 in the assay on MIA-PACA-2 cells and in the assay with H358 cells were 21.4 nM and 19.3 nM, respectively.
The matching figures for `C=CC(=O)N1CC2(CCN(c3nc(C4CCN(Cc5ccccc5)CC4)nc4c(OCC(F)(F)F)c(-c5c(C)ccc6[nH]ncc56)c(C=C)cc34)CC2)C1` [Example 77, 1-(7-(2-(1-benzylpiperidin-4-yl)-7-(5-methyl-1H-indazol-4-yl)-8-(2,2,2-trifluoroethoxy)-6-vinylquinazolin-4-yl)-2,7-diazarospiro [3.5]nonan-2-yl) propyl-2-en-1-one]: 33.7 nM and 37.6 nM.
`C=CC(=O)N1CC2(CCN(c3nc(C4CCN(Cc5cnn(C)c5)CC4)nc4c(OCC(F)(F)F)c(-c5c(C)ccc6[nH]ncc56)c(C=C)cc34)CC2)C1` [Example 78, 1-(7-(7-(5-methyl-1H-indazol-4-yl)-2-(1-((1-methyl-1H-pyrazol-4-yl)methyl)piperidin-4-yl]-8-(2,2,2-trifluoroethoxy)-6-vinylquinazolin-4-yl)-2,7-diazarospiro [3.5]nonan-2-yl) propyl-2-en-1-one]: the IC50 was 62.8 nM in the assay with MIA-PACA-2 cells and 27.2 nM in the assay with H358 cells.
